# Experimental data published in patent US20070281302A1 (priority 1998, published 2007).
# Entries after “also recorded” stand apart in the source; their conditions may differ. No end group written: not given here.
# Experiments:
# spores of B. cerues T = format: binding, Bacillus cereus
# [1] = system: Bacillus spores of each experiment shown in FIG. 3; format: binding
# B. cereus T spore = format: binding, Bacillus cereus
# spores of B. subtilis = format: binding, Bacillus subtilis
# [2] = system: B. anthracis (Sterne and ΔAmes) spores; format: binding, Bacillus anthracis
# B. cereus T spores = format: binding, Bacillus cereus
# [3] = system: B. thuringiensis subsp. kurstaki spores; format: binding, Bacillus thuringiensis
# [4] = system: spores of 15 of the other Bacillus strains; format: binding
# [5] = system: vegetative cells of the Sterne and ΔAmes strains; format: binding, Bacillus anthracis
# [6] = system: B. anthracis spores (Sterne, delta-Ames); format: binding, Bacillus anthracis
# [7] = system: spores of B. thuringiensis subsp. kurstaki; format: binding, Bacillus thuringiensis
# spores of B. cereus T = format: binding, Bacillus cereus
# [8] = system: spores of the other Bacillus strains; format: binding
# [9] = system: B. anthracis spores (delta-Ames, Sterne); format: binding, Bacillus anthracis
# B. subtilis spores = format: binding, Bacillus subtilis
substance,measurement,setting,value
WSPLHKH [Sequence 8 (Table 5)],binding to spores,spores of B. cerues T,tight binding
same,eluted phage that contained the sequence,spores of B. cerues T,Six of the twenty
same,enrichment of this phage,spores of B. cerues T,300 fold
ILPRPYTGGGC (also: PE conjugate) [ILPRPYTGGGC-PE],spore binding of control peptide-PE conjugates,[1],No significant binding
THRLPSR [Sequence 1 (Table 5)],number of phage containing the sequence,B. cereus T spore,1. (2)
NHFL (B. subtilis),binding to the spores (ligand quality),spores of B. subtilis,poor ligand
TYPLPIRGGGC-PE (PE conjugate),binding of the peptide-PE conjugate to spores,[2],concentration-dependent binding
same,effect of bovine serum albumin on conjugate binding,[2],not inhibited
same,"binding of the peptide-PE conjugate to spores, compared with B. anthracis spores",B. cereus T spores,weaker (or less extensive)
same,"binding of the peptide-PE conjugate to spores, compared with B. anthracis spores",[3],weaker (or less extensive)
same,binding of the peptide-PE conjugate to spores,[4],did not bind
same,binding of the peptide-PE conjugate to spores at the highest concentration,[4],minimal binding
same,binding to vegetative cells,[5],did not bind
ATYPLPIRGGGC-PE (PE conjugate),binding of the conjugate to spores,[2],extensive binding
same,enhancement of binding relative to TYPLPIRGGGC-PE,[2],~10 fold
same,binding of the conjugate to spores,B. cereus T spores,limited binding
same,binding relative to TYPLPIRGGGC-PE,B. cereus T spores,only slightly enhanced
same,binding of the conjugate to spores,[3],limited binding
same,binding relative to TYPLPIRGGGC-PE,[3],only slightly enhanced
same,binding of the conjugate to spores,[4],did not permit detectable binding; also recorded: No peptide-conjugate binding was observed
same,fluorescent labeling of spores,[6],completely encircled by fluorescent ligand; also recorded: readily detectable
same,fluorescent labeling of spores,[7],low-level but detectable binding
same,fluorescent labeling of spores,spores of B. cereus T,low-level but detectable binding
same,fluorescent labeling of spores,[8],not other strains; also recorded: essentially nonfluorescent
TYPIPIR [Isolate 5 (Table 3)],number of phage containing the sequence,[9],three
HWHHHGHGGGC (also: PE conjugate) [HWHHHGHGGGC-PE],spore binding of control peptide-PE conjugates,[1],No significant binding
TYPVPHR [Isolate 9 (Table 3)],number of phage containing the sequence,[9],once
SLLPGLPGGGC-PE (PE conjugate),binding of the conjugate to spores,[2],no binding
same,binding of the conjugate to spores,B. cereus T spores,extensive binding
same,binding of the conjugate to spores,[3],extensive binding
same,binding of the conjugate to spores,[4],No peptide-conjugate binding was observed
NHFLPKV [Isolate 4 (Table 1)],binding of the peptide to the spore,B. subtilis spores,bound tightly
same,eluted phage examined that contained the sequence,B. subtilis spores,Seven of the ten
same,enrichment of this phage,B. subtilis spores,700 fold
TYPIPFR [Isolate 6 (Table 3)],number of phage containing the sequence,[9],three
NHFLP (B. subtilis),binding to the spores (ligand quality),spores of B. subtilis,tight binding
LLSPLHR [Sequence 6 (Table 5)],number of phage containing the sequence,B. cereus T spore,6. (2)
